In ChEMBL document CHEMBL1201862, “PubChem BioAssay data set” (2004):
Calls of active or inactive are those of the source.

Assays:
Paired box protein Pax-8 = Paired box protein Pax-8 (Homo sapiens, UniProt Q06710); test: inhibitors of PAX8-driven TPO luciferase reporter, dose response, RMG-I cells, cherry-pick (AID 687027); assay type: functional, cell-based;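 further: luciferase reporter driven by Pax8 target thyroperoxidase promoter measured by SteadyGlo luminescence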
[1] = control 3'UTR Renilla luciferase suppression, dose response, counter-screen for Shn3 inhibitor project, cell-based, Clone20-Shn3RL, cherry-picked (AID 624133); assay type: functional
[2] = non-specific cell cytotoxicity, dose response, cytotoxicity control for PAX8 inhibitor project, plate reader, dry powder samples (AID 743021); assay type: functional, cell-based
Beta Lactamase = Beta Lactamase (Pseudomonas aeruginosa, UniProt Q932Y6); test: beta-lactamase reporter inhibitor potency, dose response, artefact control for NOD2-RIPK2 interaction inhibitor project, BLA reporter cells, FRET fluorescence (AID 651552); assay type: functional, cell-based
[3] = Fluorescence-based cell-based high throughput dose response assay for inhibitors of the interaction of nucleotide-binding oligomerization domain containing 2 (NOD2) and the receptor-interacting serine-threonine kinase 2 (RIPK2).; assay type: functional; conditions: Homo sapiens
[4] = Shn3 3'UTR reporter inhibitors, dose response, cell-based, Clone20 osteoblasts, firefly luciferase, cherry-picked (AID 624132); assay type: functional;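 further: firefly luciferase luminescence from reporter carrying the Shn3 3'UTR in osteoblasts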
[5] = HepG2 cell cytotoxicity, dose response, cytotoxicity control for Shn3 inhibitor project, CellTiter-Glo, cherry-picked (AID 624134); assay type: functional, cell-based
[6] = target: T1, NAD-dependent protein deacylase sirtuin-5, mitochondrial (Homo sapiens, UniProt Q9NXA8); test: SIRT5 desuccinylase inhibitors, dose response, biochemical, fluorescence imaging, cherry-pick, set 5 (AID 720591);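 further: desuccinylation of succinyl peptide AMC substrate read as fluorescence after trypsin release; potency of inhibitors that lower fluorescence and may act on trypsin instead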
[7] = target: Fructose-bisphosphate aldolase (Mycobacterium tuberculosis, UniProt P9WQA3); test: Fluorescence-based biochemical high throughput dose response assay for inhibitors of the fructose-bisphosphate aldolase (FBA) of M. tuberculosis.; assay type: functional
[8] = NIH-3T3 fibroblast cytotoxicity, dose response, cytotoxicity control, cell-based, fluorescence, Alamar Blue, secondary assay (AID 2327); assay type: functional;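 further: NIH-3T3 mouse fibroblasts cultured with fluconazole at 8 µg/mL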
[9] = target: SWI/SNF-related matrix-associated actin-dependent regulator of chromatin subfamily A member 2 (Homo sapiens, UniProt P51531); test: Luminescence-based cell-based high throughput dose response assay to identify activators of the function of SWI/SNF related, matrix associated, actin dependent regulator of chromatin, subfamily a, member 2 (SMARCA2, BRM).; assay type: functional
[10] = C. albicans growth with fluconazole, confirmation, fluorescence, retest (AID 2467); assay type: functional, cell-based
[11] = Counterscreen for activators of the function of SWI/SNF related, matrix associated, actin dependent regulator of chromatin, subfamily a, member 2 (SMARCA2, BRM): Luminescence-based cell-based high throughput dose response assay to identify non-selective compounds using the VP16 reporter assay.; assay type: functional
cells [12] = assay type: functional, cell-based
[13] = target: T2, Trace amine-associated receptor 1 (Homo sapiens, UniProt Q96RJ0); test: Fluorescence-based cell-based high throughput dose response assay to identify agonists of the human trace amine associated receptor 1 (TAAR1).; assay type: functional
T2 sequence (Q96RJ0 whole entry): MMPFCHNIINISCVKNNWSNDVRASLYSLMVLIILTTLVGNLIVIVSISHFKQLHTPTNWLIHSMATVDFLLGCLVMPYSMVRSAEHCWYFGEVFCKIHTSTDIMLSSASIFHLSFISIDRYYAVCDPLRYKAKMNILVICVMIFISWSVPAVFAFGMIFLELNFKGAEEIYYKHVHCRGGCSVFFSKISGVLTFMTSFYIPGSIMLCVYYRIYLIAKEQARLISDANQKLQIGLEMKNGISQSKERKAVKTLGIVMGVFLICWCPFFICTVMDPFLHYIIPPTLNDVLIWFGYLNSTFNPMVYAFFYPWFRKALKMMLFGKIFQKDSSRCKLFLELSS

cells [14] = assay type: functional, cell-based; remark: listed apart in the source
[15] = target: T2, Trace amine-associated receptor 1; test: Counterscreen for agonists of the human trace amine associated receptor 1 (hTAAR1): Fluorescence-based cell-based high throughput dose response assay to identify hTAAR1 agonist that also desensitize TAAR1 receptor response.; assay type: functional
[16] = A375 melanoma cell cytotoxicity, dose response, counter-screen for MITF inhibitor project, CellTiter-Glo luminescence, dry powder, set 2 (AID 624489); assay type: functional, cell-based; conditions: A-375;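 further: actives are compounds lowering A375 viability meaning general cytotoxicity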
[17] = A375 melanoma cell viability loss, dose response, counter-screen for MITF inhibitor project, CellTiter-Glo luminescence, dry powder, set 4 (AID 624364); assay type: functional, cell-based; conditions: A-375;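 further: A375 melanoma cells are MITF independent so this is a counter screen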
[18] = IOSE-T80 ovarian epithelial cell cytotoxicity, dose response, cytotoxicity control for PAX8 inhibitor project, plate reader, dry powder samples (AID 743045); assay type: functional, cell-based
[19] = NIH:OVCAR-3 ovarian cancer cell cytotoxicity, dose response, PAX8 inhibitor project, plate reader, dry powder samples (AID 743044); assay type: functional, cell-based
[20] = IGROV1 ovarian cancer cell cytotoxicity, dose response, PAX8 inhibitor project, plate reader, dry powder samples (AID 743043); assay type: functional, cell-based; conditions: IGROV-1
[21] = target: T1, NAD-dependent protein deacylase sirtuin-5, mitochondrial; test: SIRT5 deacylase inhibitors, dose response, biochemical, fluorescence imaging, cherry-pick, set 6 (AID 720597)
[22] = cytotoxicity in OVCAR8 ovarian cancer cells, dose response, PAX8 project, cell-based, plate reader, dry powder samples (AID 743197); assay type: functional; conditions: OVCAR-8
[23] = A2780 ovarian cancer cell cytotoxicity, dose response, cytotoxicity control, plate reader, dry powder samples (AID 743046); assay type: functional, cell-based
[24] = target: Arf-GAP with SH3 domain, ANK repeat and PH domain-containing protein 1 (Homo sapiens, UniProt Q9ULH1); assay type: functional;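 further: biochemical fluorescence polarization dose–response screen measuring inhibition of ASAP1; ASAP1 GAP domain stimulating GTP hydrolysis by truncated human ARF1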
[25] = target: ADP-ribosylation factor GTPase-activating protein 1 (Rattus norvegicus, UniProt Q62848); test: Fluorescence polarization-based biochemical high throughput dose response screening assay to identify inhibitors of ADP-ribosylation factor GTPase activating protein 1 (ARFGAP1).; assay type: functional
[26] = miR-122 activators in hepatoma reporter cells, dose response, cell-based, Huh7 psiCHECK-miR122, Renilla luciferase, cherry-picked (AID 651956); assay type: functional;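 further: huh7 hepatoma cells stably carrying a psiCHECK-2 miR-122 sensor plasmid; renilla luciferase signal reporting endogenous miR-122 activity after 48 h compound exposure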
[27] = target: T3, Disintegrin and metalloproteinase domain-containing protein 17 (Homo sapiens, UniProt P78536); test: ADAM17 protease inhibitors, dose response, counter-screen for ADAM10 exosite inhibitor project, biochemical, quenched FRET substrate (AID 743253)
[28] = target: T3, Disintegrin and metalloproteinase domain-containing protein 17; test: exosite inhibitors of ADAM17, dose response, biochemical (AID 743260)
[29] = ADAM10 inhibitors, peptide cleavage, dose response, biochemical, QFRET (AID 743254);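 further: ADAM10 enzyme with the DM2 quenched FRET peptide as substrate; EDANS fluorescence gain as the protease cuts the substrate; inhibitor potency against ADAM10 proteolytic activity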
[30] = inhibitors of SNCA 5'UTR-driven translation, confirmation, luminescence, H4 neuroglioblastoma cells, dose confirmation (AID 2454); assay type: functional, cell-based;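 further: H4 neuroglioblastoma cells carrying an alpha-synuclein 5'UTR luciferase reporter; potency for inhibition of the luciferase signal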
[31] = luciferase reporter signal reduction – luminescence, H4-C neuroglioblastoma cells, dose response (AID 2458); assay type: functional, cell-based;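 further: H4 neuroglioblastoma cells stably carrying a luciferase reporter gene fusion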
[32] = HEK293 cell cytotoxicity, dose response, cytotoxicity control, dry powder samples (AID 720567); assay type: functional, cell-based
[33] = inhibitors of firefly luciferase expression or activity, dose response, H4 neuroglioma cells, luminescence (AID 1990); assay type: functional, cell-based
[34] = inhibitors of SNCA 5'UTR-driven reporter translation, confirmation, H4 neuroglioma cells, luminescence (AID 1988); assay type: functional, cell-based
cells [35] = assay type: functional, cell-based; remark: listed apart in the source
[36] = Luminescence Cell-Based Dose Response HTS to Identify Inhibitors of 5'UTR Stem-Loop Driven Prion Protein mRNA Translation in H4 Neuroglioblastoma Cells. [Related pubchem assays: 1827 (Project Summary), 1813 (Primary HTS)]; assay type: functional

Paired box protein Pax-8, sequence (Q06710 whole entry): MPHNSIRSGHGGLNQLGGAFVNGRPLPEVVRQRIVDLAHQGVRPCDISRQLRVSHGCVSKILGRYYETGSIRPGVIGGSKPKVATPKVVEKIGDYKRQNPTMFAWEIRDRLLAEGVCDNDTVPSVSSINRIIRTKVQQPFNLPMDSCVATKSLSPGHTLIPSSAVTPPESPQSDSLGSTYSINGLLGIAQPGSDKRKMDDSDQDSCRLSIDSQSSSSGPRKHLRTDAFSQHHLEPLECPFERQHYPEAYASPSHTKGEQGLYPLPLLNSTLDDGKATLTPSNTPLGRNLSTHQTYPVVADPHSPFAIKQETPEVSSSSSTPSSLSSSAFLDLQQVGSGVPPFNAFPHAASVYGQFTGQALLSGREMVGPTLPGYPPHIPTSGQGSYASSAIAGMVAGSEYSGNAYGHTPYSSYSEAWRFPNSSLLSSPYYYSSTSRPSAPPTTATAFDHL
T3 sequence (P78536 whole entry, the tested form may be a part): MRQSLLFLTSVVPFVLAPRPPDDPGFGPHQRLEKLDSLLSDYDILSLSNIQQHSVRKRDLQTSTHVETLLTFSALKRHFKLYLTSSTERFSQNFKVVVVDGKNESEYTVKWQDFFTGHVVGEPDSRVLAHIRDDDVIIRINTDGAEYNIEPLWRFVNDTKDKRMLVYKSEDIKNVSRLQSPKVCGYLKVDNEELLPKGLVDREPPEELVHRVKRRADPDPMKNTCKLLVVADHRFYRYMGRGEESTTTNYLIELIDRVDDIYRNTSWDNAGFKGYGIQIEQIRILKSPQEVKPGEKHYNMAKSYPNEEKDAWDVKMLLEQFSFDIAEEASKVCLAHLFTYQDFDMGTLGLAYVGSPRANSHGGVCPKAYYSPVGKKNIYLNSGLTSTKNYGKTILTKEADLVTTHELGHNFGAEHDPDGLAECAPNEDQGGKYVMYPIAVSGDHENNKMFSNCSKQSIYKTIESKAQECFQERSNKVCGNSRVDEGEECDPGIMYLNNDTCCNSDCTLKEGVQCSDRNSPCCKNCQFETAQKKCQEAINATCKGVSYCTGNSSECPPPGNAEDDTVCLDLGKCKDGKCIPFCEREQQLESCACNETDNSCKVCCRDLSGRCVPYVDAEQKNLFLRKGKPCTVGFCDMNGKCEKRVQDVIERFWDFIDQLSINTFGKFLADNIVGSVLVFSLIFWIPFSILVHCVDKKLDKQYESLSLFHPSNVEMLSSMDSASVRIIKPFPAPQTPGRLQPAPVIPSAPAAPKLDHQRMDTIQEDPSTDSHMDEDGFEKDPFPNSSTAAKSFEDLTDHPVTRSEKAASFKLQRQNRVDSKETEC
T1 sequence (Q9NXA8 whole entry): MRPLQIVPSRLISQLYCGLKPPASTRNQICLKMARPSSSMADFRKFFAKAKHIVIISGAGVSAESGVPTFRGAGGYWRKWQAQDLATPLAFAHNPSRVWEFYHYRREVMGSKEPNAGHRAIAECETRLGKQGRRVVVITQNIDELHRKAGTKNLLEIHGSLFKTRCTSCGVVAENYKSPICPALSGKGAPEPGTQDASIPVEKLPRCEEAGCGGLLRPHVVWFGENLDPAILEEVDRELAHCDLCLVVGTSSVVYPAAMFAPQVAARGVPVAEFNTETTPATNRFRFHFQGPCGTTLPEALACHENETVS
SWI/SNF-related matrix-associated actin-dependent regulator of chromatin subfamily A member 2, sequence (P51531 whole entry): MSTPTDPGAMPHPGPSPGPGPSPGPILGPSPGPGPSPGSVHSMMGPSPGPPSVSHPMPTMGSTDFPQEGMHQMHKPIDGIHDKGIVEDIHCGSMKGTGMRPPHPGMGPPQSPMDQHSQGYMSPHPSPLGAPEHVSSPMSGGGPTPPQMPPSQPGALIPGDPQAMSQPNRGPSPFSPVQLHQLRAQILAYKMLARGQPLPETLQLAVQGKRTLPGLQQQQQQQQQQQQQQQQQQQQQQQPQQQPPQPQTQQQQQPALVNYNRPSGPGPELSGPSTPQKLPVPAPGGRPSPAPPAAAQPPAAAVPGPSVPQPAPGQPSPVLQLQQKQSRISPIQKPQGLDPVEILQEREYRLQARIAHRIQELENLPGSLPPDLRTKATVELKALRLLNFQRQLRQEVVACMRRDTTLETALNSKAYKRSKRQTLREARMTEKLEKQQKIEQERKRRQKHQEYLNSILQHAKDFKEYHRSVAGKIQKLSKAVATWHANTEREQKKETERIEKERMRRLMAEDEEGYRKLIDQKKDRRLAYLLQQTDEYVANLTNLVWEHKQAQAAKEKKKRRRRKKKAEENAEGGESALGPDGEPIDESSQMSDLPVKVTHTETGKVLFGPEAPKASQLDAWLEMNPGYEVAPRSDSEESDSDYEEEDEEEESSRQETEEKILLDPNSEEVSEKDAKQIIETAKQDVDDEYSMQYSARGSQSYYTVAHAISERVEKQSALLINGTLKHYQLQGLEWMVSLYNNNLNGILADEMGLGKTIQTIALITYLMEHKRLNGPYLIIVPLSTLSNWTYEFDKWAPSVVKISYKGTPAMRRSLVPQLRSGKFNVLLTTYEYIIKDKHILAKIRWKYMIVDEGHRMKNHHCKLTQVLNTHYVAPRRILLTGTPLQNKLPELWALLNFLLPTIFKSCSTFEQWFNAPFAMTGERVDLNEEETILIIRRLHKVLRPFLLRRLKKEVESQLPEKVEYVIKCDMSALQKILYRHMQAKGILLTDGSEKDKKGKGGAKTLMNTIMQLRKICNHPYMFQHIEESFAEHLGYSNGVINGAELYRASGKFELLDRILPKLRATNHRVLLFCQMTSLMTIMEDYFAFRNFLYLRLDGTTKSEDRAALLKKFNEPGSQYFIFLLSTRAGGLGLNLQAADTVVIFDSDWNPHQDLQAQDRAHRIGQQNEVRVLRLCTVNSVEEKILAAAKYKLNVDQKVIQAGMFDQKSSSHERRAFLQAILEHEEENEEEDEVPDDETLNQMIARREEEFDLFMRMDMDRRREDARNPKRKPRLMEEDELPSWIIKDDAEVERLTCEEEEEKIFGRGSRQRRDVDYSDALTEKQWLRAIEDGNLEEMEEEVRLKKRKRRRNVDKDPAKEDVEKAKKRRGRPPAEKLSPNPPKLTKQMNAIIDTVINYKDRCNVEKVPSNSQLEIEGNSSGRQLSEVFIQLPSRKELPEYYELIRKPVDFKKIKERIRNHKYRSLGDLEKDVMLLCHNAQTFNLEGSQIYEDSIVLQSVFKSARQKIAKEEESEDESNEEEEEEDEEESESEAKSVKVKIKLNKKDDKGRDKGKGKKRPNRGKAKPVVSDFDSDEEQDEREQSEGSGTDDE
Fructose-bisphosphate aldolase, sequence (P9WQA3 whole entry): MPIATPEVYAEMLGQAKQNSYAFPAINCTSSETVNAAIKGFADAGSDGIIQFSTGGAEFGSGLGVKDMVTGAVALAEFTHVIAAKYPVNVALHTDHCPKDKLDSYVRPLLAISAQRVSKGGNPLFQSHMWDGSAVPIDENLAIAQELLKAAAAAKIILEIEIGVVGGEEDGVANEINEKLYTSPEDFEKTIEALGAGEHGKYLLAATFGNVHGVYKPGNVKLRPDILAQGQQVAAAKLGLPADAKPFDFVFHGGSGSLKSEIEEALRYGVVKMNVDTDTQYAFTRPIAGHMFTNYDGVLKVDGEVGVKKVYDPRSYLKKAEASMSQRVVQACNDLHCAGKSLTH
Beta Lactamase, sequence (Q932Y6 whole entry, the tested form may be a part): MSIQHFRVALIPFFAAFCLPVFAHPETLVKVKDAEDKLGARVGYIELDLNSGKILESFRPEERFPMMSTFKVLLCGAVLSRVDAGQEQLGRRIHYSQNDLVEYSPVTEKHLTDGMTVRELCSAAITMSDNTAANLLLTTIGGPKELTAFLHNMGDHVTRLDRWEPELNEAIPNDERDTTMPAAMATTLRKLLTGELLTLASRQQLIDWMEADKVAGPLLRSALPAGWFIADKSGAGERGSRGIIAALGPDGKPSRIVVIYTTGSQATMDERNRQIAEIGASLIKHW
ADP-ribosylation factor GTPase-activating protein 1, sequence (Q62848 whole entry): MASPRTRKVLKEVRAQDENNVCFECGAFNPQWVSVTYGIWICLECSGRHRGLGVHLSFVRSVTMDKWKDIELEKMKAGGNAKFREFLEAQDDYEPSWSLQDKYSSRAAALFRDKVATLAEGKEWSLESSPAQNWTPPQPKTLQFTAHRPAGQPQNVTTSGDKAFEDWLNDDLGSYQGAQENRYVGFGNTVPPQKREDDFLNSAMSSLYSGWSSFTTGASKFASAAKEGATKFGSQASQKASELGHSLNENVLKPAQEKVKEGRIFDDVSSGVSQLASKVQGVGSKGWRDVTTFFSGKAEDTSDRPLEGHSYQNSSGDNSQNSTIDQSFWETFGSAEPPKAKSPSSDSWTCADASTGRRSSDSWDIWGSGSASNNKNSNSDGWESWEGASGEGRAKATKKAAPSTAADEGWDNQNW

## C=C1C(=O)[C@]23C[C@H]1CCC2[C@@]1(C)C(C[C@@H]3O)[C@](C)(C(=O)OC)CC[C@@H]1O (stereo not given in full)
Paired box protein Pax-8
  AC50: 1.71 µM (active)
[1]
  AC50: 7.06 µM (active)
[2]
  AC50: 38.2 µM (active)
Beta Lactamase
  IC50: 24.2 µM (inactive)
[3]
  IC50: 2.3 µM (active)
[4]
  AC50: 2.58 µM (active)
[5]
  AC50: 15.8 µM (active)

## COc1ccc(CC(=O)Nc2ccc(S(=O)(=O)N3CCN(C)CC3)cc2)cc1
[6]
  AC50: > 30 µM (inactive)

## Cc1cc(OC(C)C(=O)NCCCN2CCOCC2)c2c(C)cc(=O)oc2c1 (stereo not given)
[7]
  IC50: 1.32 µM (active)

## COc1ccc(NC(=O)c2ccc([N+](=O)[O-])o2)cc1
[8]
  EC50: 28.2 µM (active)
[9]
  EC50: > 91.1 µM (inactive)
[10]
  EC50: 3.55 µM (active)
[11]
  EC50: > 91.1 µM (inactive)

## COc1ccc2c(c1)C(SCC(=O)NCCc1ccccc1)CC(C)(C)O2 (stereo not given)
Cells [12]
  IC50: > 29.9 µM (inactive)
[13]
  EC50: 1.04 µM (active)
Cells [14]
  EC50: > 29.9 µM (inactive)
[15]
  IC50: 2.31 µM (active)

## O=C1C(NS(=O)(=O)c2ccc(Br)s2)=C(N2CCSCC2)C(=O)c2ccccc21
[16]
  AC50: > 70 µM (inactive)
[17]
  AC50: > 70 µM (inactive)

## CCN1CCN(C2=C(N(C)C(C)=O)C(=O)c3ccccc3C2=O)CC1
[16]
  AC50: 6.2 µM (active)
[17]
  AC50: 12.4 µM (active)

## O=C(C[C@@H]1C[C@H]2c3cc(NS(=O)(=O)c4ccc(F)cc4)ccc3O[C@H]2[C@H](CO)O1)NCc1ccc(-c2ccccc2)cc1
Paired box protein Pax-8
  AC50: 3.44 µM (active)
[18]
  AC50: 17.6 µM (active)
[19]
  AC50: 9.15 µM (active)
[20]
  AC50: 14.6 µM (active)
[21]
  AC50: > 30 µM (inactive)
[22]
  AC50: 14.8 µM (active)
[23]
  AC50: 10.6 µM (active)

## O=C(CSC1=NS(=O)(=O)c2ccccc2N1)NCCc1ccccc1
Cells [12]
  IC50: > 29.9 µM (inactive)
[13]
  EC50: 3.33 µM (active)
Cells [14]
  EC50: > 29.9 µM (inactive)
[15]
  IC50: 6.94 µM (active)

## COc1ccc(-n2nnnc2SCC(=O)c2ccc3c(c2)OCCO3)c(OC)c1
[24]
  IC50: 12.6 µM (inactive)
[25]
  IC50: 17.7 µM (inactive)

## CO[C@H]1CN(C)C(=O)c2ccc(NC(C)=O)cc2OC[C@@H](C)N(C(=O)CC2CC2)C[C@H]1C
[26]
  AC50: 49.6 µM (active)

## COc1ccc(N(CC(O)Cn2c3ccccc3c3ccccc32)S(=O)(=O)c2ccccc2)cc1 (stereo not given)
[27]
  IC50: > 69.5 µM (inactive)
[28]
  IC50: > 69.5 µM (inactive)
[29]
  IC50: > 69.5 µM (inactive)

## O=C(N/N=C/c1ccc(Cl)cc1)c1sccc1OCc1ccc(F)cc1
[30]
  EC50: > 3.8 µM (not active)
[31]
  EC50: 0.889 µM (active)
[32]
  AC50: 22.3 µM (active)
[33]
  EC50: 10.2 µM (active)
[34]
  EC50: < 0.1 µM (active)
Cells [35]
  EC50: 1.3 µM (active)
[36]
  EC50: < 0.1 µM (active)
